Test results taken from patent publication US20220380368A1, “SPIROCYCLIC ANDROGEN RECEPTOR PROTEIN DEGRADERS” (THE REGENTS OF THE UNIVERSITY OF MICHIGAN, priority 2019, published 2022).
Read-outs that look alike come from different tables or passages of the source.

Assays:
AR protein = biological target: T1, AR protein (Homo sapiens, UniProt P10275); test: Western blotting analysis of AR protein levels in VCaP cells, band quantification, DC50/DC90; type: cell-based; conditions: VCaP cells, Table 6; read-out: VCaP DC50
T1 construct: endogenous in cells; host or cells: VCaP
T1 sequence (P10275 1-920): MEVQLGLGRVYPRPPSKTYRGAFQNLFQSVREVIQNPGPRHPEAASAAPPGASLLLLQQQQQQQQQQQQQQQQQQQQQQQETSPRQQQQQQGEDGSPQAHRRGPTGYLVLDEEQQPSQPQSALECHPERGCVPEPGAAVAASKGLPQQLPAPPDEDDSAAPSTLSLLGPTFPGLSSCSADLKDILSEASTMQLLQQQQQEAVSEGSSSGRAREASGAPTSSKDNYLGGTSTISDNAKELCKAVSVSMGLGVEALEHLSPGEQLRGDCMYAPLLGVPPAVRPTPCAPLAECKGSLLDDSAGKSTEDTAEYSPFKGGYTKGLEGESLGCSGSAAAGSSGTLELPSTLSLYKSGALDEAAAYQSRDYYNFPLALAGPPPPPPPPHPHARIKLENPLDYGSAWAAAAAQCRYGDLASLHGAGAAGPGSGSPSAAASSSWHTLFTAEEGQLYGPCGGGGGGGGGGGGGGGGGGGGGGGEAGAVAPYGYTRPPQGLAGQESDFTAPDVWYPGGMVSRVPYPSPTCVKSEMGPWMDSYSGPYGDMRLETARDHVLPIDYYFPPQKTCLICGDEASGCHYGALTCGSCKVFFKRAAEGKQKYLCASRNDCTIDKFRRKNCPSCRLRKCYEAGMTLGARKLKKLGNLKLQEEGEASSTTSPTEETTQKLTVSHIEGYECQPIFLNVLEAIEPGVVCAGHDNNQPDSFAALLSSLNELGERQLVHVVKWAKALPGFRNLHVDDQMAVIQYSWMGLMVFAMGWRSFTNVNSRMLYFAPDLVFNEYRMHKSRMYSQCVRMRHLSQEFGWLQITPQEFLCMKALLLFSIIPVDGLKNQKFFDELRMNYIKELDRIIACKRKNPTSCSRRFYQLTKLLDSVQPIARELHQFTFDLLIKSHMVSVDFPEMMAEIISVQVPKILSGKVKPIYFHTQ
Method in brief: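 VCaP cells treated with compounds, lysed in RIPA and probed for AR by Western blot with GAPDH loading control. Band intensities normalised to GAPDH; DC50 from curve fit, DC90 calculated from DC50 and Hill slope via four-parameter equation.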

[1] = Mouse PK studies after oral and IV dosing; type: in vivo; conditions: for F: PO 3 mg/kg vs IV 1 mg/kg; for AUC(0-t) / clearance / half-life / Vd / Cmax / Tmax: in vivo; for clearance: read-out: IV Cl (converted); for Vd: read-out: IV VSS
Procedure: The pharmacokinetics of representative Compounds of the Disclosure were determined after oral and IV dosing at the concentrations indicated in mouse (Table 7). […] The vehicles used in these studies are either (i) 10% PEG400+90% PBS (adjusted to pH to 8.0 by 0.5 N NaOH); or (ii) 100% PEG200.

[2] = iv, 1 mg/kg, IV, dose 1 mg/kg, read-out: IV AUC(0 − t)
[3] = iv, 1 mg/kg, IV, dose 1 mg/kg, read-out: IV T1/2 (converted)
[4] = po, 3 mg/kg, PO, dose 3 mg/kg, read-out: PO AUC(0 − t)
[5] = po, 3 mg/kg, PO, dose 3 mg/kg, read-out: PO T1/2 (converted)

SMILES	DC50 (AR protein) [nM]	F [1] [%]	AUC(0-t) [1, 2] [ng·h/mL]	clearance ([1]; iv, 1 mg/kg, IV, dose 1 mg/kg) [mL/min/kg]	half-life [1, 3] [h]	Vd ([1]; iv, 1 mg/kg, IV, dose 1 mg/kg) [L/kg]	Cmax ([1]; po, 3 mg/kg) [ng/mL]	Tmax ([1]; po, 3 mg/kg) [h]	AUC(0-t) [1, 4] [ng·h/mL]	half-life [1, 5] [h]
C[C@H]1CC2(CCN(c3ccc(C(=O)N4CCC(CN5CCN(c6ccc7c(c6)C(=O)N(C6CCC(=O)NC6=O)C7=O)CC5)CC4)nn3)CC2)CN1c1ccc(C#N)c(Cl)c1 (stereo partly drawn) [Cpd. No. 489, 2-chloro-4-((3S)-8-(6-(4-((4-(2-(2,6-dioxopiperidin-3-yl)-1,3-dioxoisoindolin-5-yl)piperazin-1-yl)methyl)piperidine-1-carbonyl)pyridazin-3-yl)-3-methyl-2,8-diazaspiro[4.5]decan-2-yl)benzonitrile]	1 to 10	37	2140	7.33	7.45	2.72	477	1	2390	7.5
C[C@H]1CC2(CCN(c3ccc(C(=O)N4CCC(CN5CCN(c6cc7c(cc6F)C(=O)N(C6CCC(=O)NC6=O)C7=O)CC5)CC4)nn3)CC2)CN1c1ccc(C#N)c(Cl)c1 (stereo partly drawn) [Cpd. No. 490, 2-chloro-4-((3S)-8-(6-(4-((4-(2-(2,6-dioxopiperidin-3-yl)-6-fluoro-1,3-dioxoisoindolin-5-yl)piperazin-1-yl)methyl)piperidine-1-carbonyl)pyridazin-3-yl)-3-methyl-2,8-diazaspiro[4.5]decan-2-yl)benzonitrile]	1 to 10	25	4920	3	8.7	1.74	639	1	3730	7.1
C[C@H]1CC2(CCN(c3ccc(C(=O)N4CCN(CC5CCN(c6ccc7c(c6)C(=O)N(C6CCC(=O)NC6=O)C7=O)CC5)CC4)nn3)CC2)CN1c1ccc(C#N)c(Cl)c1 (stereo partly drawn) [Cpd. No. 491, 2-chloro-4-((3S)-8-(6-(4-((1-(2-(2,6-dioxopiperidin-3-yl)-1,3-dioxoisoindolin-5-yl)piperidin-4-yl)methyl)piperazine-1-carbonyl)pyridazin-3-yl)-3-methyl-2,8-diazaspiro[4.5]decan-2-yl)benzonitrile]	1 to 10	34	2640	6	7.7	2.09	789	1	2710	5.7
C[C@H]1CC2(CCN(c3cnc(C(=O)N4CCC(CN5CCN(c6ccc7c(c6)C(=O)N(C6CCC(=O)NC6=O)C7=O)CC5)CC4)cn3)CC2)CN1c1ccc(C#N)c(Cl)c1 (stereo partly drawn) [Cpd. No. 492, 2-chloro-4-((3S)-8-(5-(4-((4-(2-(2,6-dioxopiperidin-3-yl)-1,3-dioxoisoindolin-5-yl)piperazin-1-yl)methyl)piperidine-1-carbonyl)pyrazin-2-yl)-3-methyl-2,8-diazaspiro[4.5]decan-2-yl)benzonitrile]	1 to 10	15	277	54.5	3.3	7.71	59	0.5	123	2.1
C[C@H]1CC2(CCN(c3cnc(C(=O)N4CCC(CN5CCN(c6cc7c(cc6F)C(=O)N(C6CCC(=O)NC6=O)C7=O)CC5)CC4)cn3)CC2)CN1c1ccc(C#N)c(Cl)c1 (stereo partly drawn) [Cpd. No. 493, 2-chloro-4-((3S)-8-(5-(4-((4-(2-(2,6-dioxopiperidin-3-yl)-6-fluoro-1,3-dioxoisoindolin-5-yl)piperazin-1-yl)methyl)piperidine-1-carbonyl)pyrazin-2-yl)-3-methyl-2,8-diazaspiro[4.5]decan-2-yl)benzonitrile]	1 to 10	25	840	20.3	4.9	4.12	224	0.7	627	4.8
C[C@H]1CC2(CCN(c3cnc(C(=O)N4CCN(CC5CCN(c6ccc7c(c6)C(=O)N(C6CCC(=O)NC6=O)C7=O)CC5)CC4)cn3)CC2)CN1c1ccc(C#N)c(Cl)c1 (stereo partly drawn) [Cpd. No. 494, 2-chloro-4-((3S)-8-(5-(4-((1-(2-(2,6-dioxopiperidin-3-yl)-1,3-dioxoisoindolin-5-yl)piperidin-4-yl)methyl)piperazine-1-carbonyl)pyrazin-2-yl)-3-methyl-2,8-diazaspiro[4.5]decan-2-yl)benzonitrile]	1 to 10	9	180	87.3	5.4	16.9	36	0.5	49	2.4
C[C@H]1CC2(CCN(c3ccc(C(=O)N4CCC(CN5Cc6cc7c(cc6C5)C(=O)N(C5CCC(=O)NC5=O)C7=O)CC4)nn3)CC2)CN1c1ccc(C#N)c(Cl)c1 (stereo partly drawn) [Cpd. No. 496, 2-chloro-4-((3S)-8-(6-(4-((6-(2,6-dioxopiperidin-3-yl)-5,7-dioxo-3,5,6,7-tetrahydropyrrolo[3,4-f]isoindol-2(1H)-yl)methyl)piperidine-1-carbonyl)pyridazin-3-yl)-3-methyl-2,8-diazaspiro[4.5]decan-2-yl)benzonitrile]	< 1	72	3030	5.33	5.8	1.46	1420	1	6550	4.1
C[C@H]1CC2(CCN(c3cnc(C(=O)N4CCC(N5CCN(c6ccc7c(c6)C(=O)N(C6CCC(=O)NC6=O)C7=O)CC5)CC4)cn3)CC2)CN1c1ccc(C#N)c(Cl)c1 (stereo partly drawn) [Cpd. No. 497, 2-chloro-4-((3S)-8-(5-(4-(4-(2-(2,6-dioxopiperidin-3-yl)-1,3-dioxoisoindolin-5-yl)piperazin-1-yl)piperidine-1-carbonyl)pyrazin-2-yl)-3-methyl-2,8-diazaspiro[4.5]decan-2-yl)benzonitrile]	< 1	30	849	18.8	2.7	2	336	0.5	760	2
C[C@H]1CC2(CCN(c3cnc(C(=O)N4CCC(N5CCN(c6cc7c(cc6F)C(=O)N(C6CCC(=O)NC6=O)C7=O)CC5)CC4)cn3)CC2)CN1c1ccc(C#N)c(Cl)c1 (stereo partly drawn) [Cpd. No. 498, 2-chloro-4-((3S)-8-(5-(4-(4-(2-(2,6-dioxopiperidin-3-yl)-6-fluoro-1,3-dioxoisoindolin-5-yl)piperazin-1-yl)piperidine-1-carbonyl)pyrazin-2-yl)-3-methyl-2,8-diazaspiro[4.5]decan-2-yl)benzonitrile]	1 to 10	45	419	36.8	1.9	3.22	191	0.8	572	2.3
C[C@H]1CC2(CCN(c3ccc(C(=O)N4CCC(N5CCN(c6ccc7c(c6)C(=O)N(C6CCC(=O)NC6=O)C7=O)CC5)CC4)nn3)CC2)CN1c1ccc(C#N)c(Cl)c1 (stereo partly drawn) [Cpd. No. 499, 2-chloro-4-((3S)-8-(6-(4-(4-(2-(2,6-dioxopiperidin-3-yl)-1,3-dioxoisoindolin-5-yl)piperazin-1-yl)piperidine-1-carbonyl)pyridazin-3-yl)-3-methyl-2,8-diazaspiro[4.5]decan-2-yl)benzonitrile]	< 1	29	1920	8.17	3.6	1.73	404	1.3	1670	2
